Legend:
Format in all cases: in vivo
[1] = system: Orchid thrips (dichromothrips corbetti); experiment: B.12 Orchid thrips (dichromothrips corbetti), floral-immersion technique; conditions: adult thrips on dipped orchid petals, 72 hours after treatment, in comparison with untreated controls
Procedure: B.12 Orchid thrips (dichromothrips corbetti)
Dichromothrips corbetti adults used for bioassay were obtained from a colony maintained continuously under laboratory conditions. For testing purposes, the test compound is diluted in a 1:1 mixture of acetone:water (vol:vol), plus Kinetic HV at a rate of 0.01% v/v.
Thrips potency of each compound was evaluated by using a floral-immersion technique. All petals of individual, intact orchid flowers were dipped into treatment solution and allowed to dry in Petri dishes. Treated petals were placed into individual resealable plastic along with about 20 adult thrips. All test arenas were held under continuous light and a temperature of about 28° C. for duration of the assay. After 3 days, the numbers of live thrips were counted on each petal. The percent mortality was recorded 72 hours after treatment.

[2] = system: Mediterranean Fruitfly (Ceratitis capitata); experiment: B.6 Mediterranean Fruitfly (Ceratitis capitata), microtiter plate insect diet; conditions: 120 h, 800 ppm, sprayed onto insect diet, 5 days, in comparison with untreated controls, read-out: mortality (egg and larval)
Procedure: B.6 Mediterranean Fruitfly (Ceratitis capitata)
For evaluating control of Mediterranean fruitfly (Ceratitis capitata) the test unit consisted of microtiter plates containing an insect diet and 50-80 C. capitata eggs.
(§1) The compounds were formulated using a solution containing 75% v/v water and 25% v/v DMSO. Different concentrations of formulated compounds were sprayed onto the insect diet at 5 μl, using a custom built micro atomizer, at two replications.
(§2) After application, microtiter plates were incubated at about 28±1° C. and about 80±5% relative humidity for 5 days. Egg and larval mortality was then visually assessed.

[3] = system: Boll Weevil (Anthonomus grandis); experiment: B.3 Boll Weevil (Anthonomus grandis), microtiter plate insect diet; conditions: 120 h, 800 ppm, sprayed onto insect diet, 5 days, in comparison with untreated controls, read-out: mortality (egg and larval)
Procedure: B.3 Boll Weevil (Anthonomus grandis)
For evaluating control of boll weevil (Anthonomus grandis) the test unit consisted of 96-well-microtiter plates containing an insect diet and 5-10 A. grandis eggs.
as §1
After application, microtiter plates were incubated at about 25±1° C. and about 75±5% relative humidity for 5 days. Egg and larval mortality was then visually assessed.

[4] = system: Diamond Back Moth (Plutella xylostella); experiment: B.1 Diamond Back Moth (Plutella xylostella), cabbage leaf dip; conditions: foliar, 500 ppm, 3rd instar larvae on dipped cabbage leaves, 72 hours after treatment, in comparison with untreated controls, read-out: mortality
Procedure: B.1 Diamond Back Moth (Plutella xylostella)
The active compound was dissolved at the desired concentration in a mixture of 1:1 (vol:vol) distilled water:aceteone. Surfactant (Kinetic HV) was added at a rate of 0.01% (vol/vol). The test solution was prepared at the day of use.
Leaves of cabbage were dipped in test solution and air-dried. Treated leaves were placed in petri dishes lined with moist filter paper and inoculated with ten 3rd instar larvae. Mortality was recorded 72 hours after treatment. Feeding damages were also recorded using a scale of 0-100%.

[5] = system: Tobacco Budworm (Heliothis virescens); experiment: B.7 Tobacco Budworm (Heliothis virescens) I, microtiter plate insect diet; conditions: 120 h, 800 ppm, sprayed onto insect diet, 5 days, in comparison with untreated controls, read-out: mortality (egg and larval)
Procedure: B.7 Tobacco Budworm (Heliothis virescens) I
as §1, with “For evaluating control of tobacco budworm (Heliothis virescens) the test unit consisted of 96-well-microtiter plates containing an insect diet and 15-25 H. virescens eggs. The” for “The”, “at 10” for “at 5”
as §2

FC(F)(F)Oc1ccc(-c2onc3c2CCc2cc(/C=N/NC(=S)Nc4c(Cl)cc(Cl)cc4Cl)ccc2-3)cc1 [C-9, 1-(2,4,6-trichlorophenyl)-3-[(E)-[3-[4-(trifluoromethoxy)phenyl]-4,5-dihydrobenzo[g][2,1]benzoxazol-7-yl]methyleneamino]thiourea]
≥ 75%: mortality at 500 ppm [1] | mortality at 800 ppm [2]

COc1ccccc1NC(=S)N/N=C/c1ccc2c(ccc3c2ncn3-c2ccc(OC(F)(F)F)cc2)c1 [C-26, 3-(2-methoxyphenyl)-1-[[3-[4-(trifluoromethoxy)phenyl]-9aH-benzo[e]benzimidazol-7-ylidene]methylimino] isothiourea]
≥ 75%: mortality at 800 ppm [3] | mortality at 800 ppm [2] | mortality at 500 ppm [4] | mortality at 800 ppm [5]

FC(F)(F)Oc1ccc(-n2cnc3c4ccc(/C=N/NC(=S)Nc5cccc6ccccc56)cc4ccc32)cc1 [C-29, 1-(2H-naphthalen-1-ylidene)-3-[[3-[4-(trifluoromethoxy)phenyl]-9aH-benzo[e]benzimidazol-7-ylidene]methylimino] thiourea]
≥ 75%: mortality at 800 ppm [3] | mortality at 800 ppm [2] | mortality at 500 ppm [4] | mortality at 800 ppm [5]

FC(F)(F)Oc1ccc(-n2cnc3c4ccc(/C=N/NC(=S)Nc5ccccc5Cl)cc4ccc32)cc1 [C-30, 3-(2-chlorophenyl)-1-[[3-[4-(trifluoromethoxy)phenyl]-8H-benzo[e]benzimidazol-7-ylidene]methylimino] isothiourea]
≥ 75%: mortality at 500 ppm [1] | mortality at 500 ppm [4]

Cc1cccc(C)c1NC(=S)N/N=C/c1ccc2c(ccc3c2cnn3-c2ccc(OC(F)(F)F)cc2)c1 [C-46, (E)-N-(2,6-dimethylphenyl)-2-((3-(4-(trifluoromethoxy)phenyl)-3H-benzo[e]indazol-7-yl)methylene)hydrazinecarbothioamide]
≥ 75%: mortality at 800 ppm [3] | mortality at 800 ppm [2] | mortality at 500 ppm [4] | mortality at 800 ppm [5]

CCc1ccccc1NC(=S)N/N=C/c1ccc2c(ccc3c2cnn3-c2ccc(OC(F)(F)F)cc2)c1 [C-50, 1-(2-ethylphenyl)-3-[[3-[4-(trifluoromethoxy)phenyl]-5H-benzo[e]indazol-7-ylidene]methylimino]thiourea]
≥ 75%: mortality at 800 ppm [3] | mortality at 800 ppm [2] | mortality at 500 ppm [4] | mortality at 800 ppm [5]

FC(F)(F)Oc1ccc(-n2cnc3c4ccc(/C=N/NC(=S)Nc5ccccc5Br)cc4ccc32)cc1 [C-67, 1-(2-bromophenyl)-3-[[3-[4-(trifluoromethoxy)phenyl]-5H-benzo[e]benzimidazol-7-ylidene]methylimino] thiourea]
≥ 75%: mortality at 800 ppm [3] | mortality at 800 ppm [2] | mortality at 500 ppm [4] | mortality at 800 ppm [5]

Cc1cccc(Cl)c1NC(=S)N/N=C/c1ccc2c(ccc3c(-c4ccc(OC(F)(F)F)cc4)n(C)nc32)c1 [C-91, 1-(2-chloro-6-methyl-phenyl)-3-[(E)-[2-methyl-3-[4-(trifluoromethoxy)phenyl]benzo[g]indazol-7-yl]methyleneamino] thiourea]
≥ 75%: mortality at 800 ppm [3] | mortality at 800 ppm [2] | mortality at 500 ppm [4] | mortality at 800 ppm [5]

Cn1nc2c(ccc3cc(/C=N/NC(=S)Nc4c(Br)cccc4Br)ccc32)c1-c1ccc(OC(F)(F)F)cc1 [C-98, 1-(2,6-dibromophenyl)-3-[(E)-[2-methyl-3-[4-(trifluoromethoxy)phenyl]benzo[g]indazol-7-yl]methyleneamino] thiourea]
≥ 75%: mortality at 800 ppm [3] | mortality at 800 ppm [2] | mortality at 500 ppm [4] | mortality at 800 ppm [5]

Cn1nc2c(ccc3cc(/C=N/NC(=S)Nc4c(Cl)cccc4Cl)ccc32)c1-c1ccc(OC(F)(F)F)cc1 [C-99, 1-(2,6-dichlorophenyl)-3-[(E)-[2-methyl-3-[4-(trifluoromethoxy)phenyl]benzo[g]indazol-7-yl]methyleneamino]thiourea]
≥ 75%: mortality at 500 ppm [1] | mortality at 800 ppm [3] | mortality at 800 ppm [2] | mortality at 800 ppm [5]

— patent US9497970B2, “Pesticide compounds” (priority 2013, dated 2016)
